Assay results from US4315933A, “Antibacterial amide compounds and pharmaceutical compositions containing the same” (Warner-Lambert Company, priority 1980, dated 1982).
Converted amounts (≈) assume the structure as drawn.

Key:
Assay in all cases: Minimal Inhibitory Concentration, in vitro
Type in all cases: cell-based
Kleb. pneu. = tested on: Kleb. pneu.
Entero. cloacae = details: for MIC: Enterobacter cloacae
[1] = tested on: Pseudomonas aeruginosa #28
Serr. marces. = tested on: Serr. marces.
Staph. aureus S18713 = details: for MIC: Staphylococcus aureus

Row | Compound | MIC (Kleb. pneu.) [µg/mL] | MIC (Entero. cloacae) [µg/mL] | MIC [1] [µg/mL] | MIC (Serr. marces.) [µg/mL] | MIC (Staph. aureus S18713) [µg/mL] | Minimal Inhibitory Concentration (Kleb. pneu.) [µg/mL] | Minimal Inhibitory Concentration [1] [µg/mL] | Minimal Inhibitory Concentration (Serr. marces.) [µg/mL] | Minimal Inhibitory Concentration (Entero. cloacae) | Minimal Inhibitory Concentration (Staph. aureus S18713) [µg/mL]
1 | CC1(C)S[C@@H]2[C@H](NC(=O)[C@H](NC(=O)c3cnc(-c4ccc(NC(=O)CC#N)cc4)nc3O)c3ccc(O)cc3)C(=O)N2[C@H]1C(=O)O [Example 4, N-[2-[4-(Cyanoacetylamino)phenyl]-4-hydroxy-5-pyrimidinylcarbonyl]amoxicillin] | 25 (≈ 38.7 µM) | 3.1 (≈ 4.8 µM) | 0.8 (≈ 1.24 µM) | 3.1 (≈ 4.8 µM) | > 50 |  |  |  |  | 
2 | COCC(=O)Nc1ccc(-c2ncc(C(=O)N[C@@H](C(=O)N[C@@H]3C(=O)N4[C@@H]3SC(C)(C)[C@@H]4C(=O)O)c3ccccc3)c(O)n2)cc1 [Example 5, N-[2-[4-(Methoxyacetylamino)phenyl]-4-hydroxy-5-pyrimidinylcarbonyl]ampicillin] | 25 (≈ 39.4 µM) | 12.5 (≈ 19.7 µM) | 3.1 (≈ 4.88 µM) | 100 (≈ 158 µM) | 100 (≈ 158 µM) |  |  |  |  | 
3 | CCNC(=O)Nc1ccc(-c2ncc(C(=O)N[C@@H](C(=O)N[C@@H]3C(=O)N4[C@@H]3SC(C)(C)[C@@H]4C(=O)O)c3ccc(O)cc3)c(O)n2)cc1 [Example 8, N-[2-[4-(N-Ethylcarbamoylamino)phenyl]-4-hydroxy-5-pyrimidinylcarbonyl]amoxicillin] | 12.5 (≈ 19.2 µM) | 6.3 (≈ 9.7 µM) | 0.8 (≈ 1.23 µM) | 3.1 (≈ 4.77 µM) | > 50 |  |  |  |  | 
4 | N-[2-[4-(Acetylamino)phenyl]-4-hydroxy-5-pyrimidinylcarbonyl]amoxicillin [Example 2] |  |  |  |  |  | 6.3 | 1.6 | 200 |  | 
5 | N-[2-[4-(Dichloroacetylamino)phenyl]-4-hydroxy-5-pyrimidinylcarbonyl]amoxicillin [Example 1] |  |  |  |  |  | 12.5 | 1.6 | 200 | 1.6 µg/mL | 50
6 | N-[2-[4-(Trifluoroacetylamino)phenyl]-4-hydroxy-5-pyrimidinylcarbonyl]amoxicillin [Example 3] |  |  |  |  |  | 12.5 | 0.8 | 3.1 | 6.3 µg/mL | > 50
7 | N-[2-[4-[(2,2,2-Trifluoroethyl)thio]acetylamino]phenyl]-4-hydroxy-5-pyrimidinylcarbonyl]amoxicillin [Example 7] |  |  |  |  |  | 50 |  | 200 |  | 50
8 | N-[2-[4-[(2-Ethoxy-1,2-dioxoethyl)amino]phenyl]-4-hydroxy-5-pyrimidinylcarbonyl]amoxicillin [Example 6] |  |  |  |  |  | 25 | 1.6 |  | 12,5 μg/ml | 
